# Test results published in US20120264735A1 (priority 2009, published 2012).
# Molecular target: T1, c-Met kinase (recombinant c-Met) (Homo sapiens, UniProt P08581)
# T1 construct: 0.27 nM recombinant c-Met
# Assay: In vitro kinase assay I (homogeneous time-resolved fluorescence tyrosine kinase assay)
# Format: biochemical
# Procedure, shortened: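 Biotinylated peptide (0.5 μM) phosphorylated by 0.2 nM recombinant c-Met with 50 μM MgATP, 60 min at room temperature, pH 7.4, 5% DMSO. EDTA stop; HTRF read with Eu-anti-phosphotyrosine antibody and streptavidin-APC. IC50 from 4-parameter logistic fit.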
# T1 sequence (P08581 25-1390): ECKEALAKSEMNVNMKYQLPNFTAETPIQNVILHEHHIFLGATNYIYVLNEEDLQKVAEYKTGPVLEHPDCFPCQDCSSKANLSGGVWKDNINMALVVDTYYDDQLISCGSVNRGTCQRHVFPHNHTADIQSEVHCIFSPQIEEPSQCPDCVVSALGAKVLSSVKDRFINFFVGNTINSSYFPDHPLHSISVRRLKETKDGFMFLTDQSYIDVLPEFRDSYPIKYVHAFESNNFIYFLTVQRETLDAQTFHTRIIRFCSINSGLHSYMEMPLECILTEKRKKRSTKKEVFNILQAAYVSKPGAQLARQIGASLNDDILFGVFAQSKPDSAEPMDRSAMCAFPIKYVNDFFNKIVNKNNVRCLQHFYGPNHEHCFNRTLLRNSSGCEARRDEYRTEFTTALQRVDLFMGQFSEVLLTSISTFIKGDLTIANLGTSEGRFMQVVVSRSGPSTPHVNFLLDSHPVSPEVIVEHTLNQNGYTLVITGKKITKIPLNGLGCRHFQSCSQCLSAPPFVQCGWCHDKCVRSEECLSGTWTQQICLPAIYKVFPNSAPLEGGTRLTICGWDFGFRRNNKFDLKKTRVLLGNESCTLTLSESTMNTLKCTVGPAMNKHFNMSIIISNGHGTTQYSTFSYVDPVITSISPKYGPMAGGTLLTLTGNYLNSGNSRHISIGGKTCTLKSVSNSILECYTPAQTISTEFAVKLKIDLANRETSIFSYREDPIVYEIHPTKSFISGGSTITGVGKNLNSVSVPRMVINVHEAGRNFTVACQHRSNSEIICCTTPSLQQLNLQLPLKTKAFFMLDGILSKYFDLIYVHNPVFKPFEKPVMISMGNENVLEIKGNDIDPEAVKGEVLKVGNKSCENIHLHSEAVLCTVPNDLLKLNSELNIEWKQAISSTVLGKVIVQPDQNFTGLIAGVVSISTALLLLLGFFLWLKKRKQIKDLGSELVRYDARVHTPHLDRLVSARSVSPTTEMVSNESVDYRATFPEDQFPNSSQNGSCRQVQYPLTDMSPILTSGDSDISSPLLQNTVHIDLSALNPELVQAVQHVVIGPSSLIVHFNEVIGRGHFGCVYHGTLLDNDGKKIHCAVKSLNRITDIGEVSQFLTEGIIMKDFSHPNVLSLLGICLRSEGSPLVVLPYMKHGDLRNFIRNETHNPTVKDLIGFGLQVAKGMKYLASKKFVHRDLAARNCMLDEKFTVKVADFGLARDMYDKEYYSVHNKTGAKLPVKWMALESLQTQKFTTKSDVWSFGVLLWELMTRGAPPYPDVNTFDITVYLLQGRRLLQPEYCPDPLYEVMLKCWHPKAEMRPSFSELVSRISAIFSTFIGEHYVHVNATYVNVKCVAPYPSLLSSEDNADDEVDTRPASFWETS
row,Compound,IC50 [nM]
1,"CCNC(=O)Nc1cccc(Cc2nn(-c3ccccc3)ccc2=O)c1 [Example 486, 1-Ethyl-3-{3-[(4-oxo-1-phenyl-1,4-dihydropyridazin-3-yl)methyl]phenyl}urea]",1000 to 3000
2,"CNC(=O)Nc1cccc(Cc2nn(-c3cnn(C)c3)ccc2=O)c1 [Example 487, 1-Methyl-3-(3-{[1-(1-methyl-1H-pyrazol-4-yl)-4-oxo-1,4-dihydropyridazin-3-yl]methyl}phenyl)urea]",< 100
3,"CCNC(=O)Nc1cccc(Cc2nn(-c3cnn(C)c3)ccc2=O)c1 [Example 488, 1-ethyl-3-(3-{[1-(1-methyl-1H-pyrazol-4-yl)-4-oxo-1,4-dihydropyridazin-3-yl]methyl}phenyl)urea]",< 100
4,"CCCNC(=O)Nc1cccc(Cc2nn(-c3cnn(C)c3)ccc2=O)c1 [Example 489, 1-(3-{[1-(1-methyl-1H-pyrazol-4-yl)-4-oxo-1,4-dihydropyridazin-3-yl]methyl}phenyl)-3-propylurea]",< 100
5,"Cn1cc(-n2ccc(=O)c(Cc3cccc(NC(=O)NCc4ccccc4)c3)n2)cn1 [Example 490, 1-benzyl-3-(3-{[1-(1-methyl-1H-pyrazol-4-yl)-4-oxo-1,4-dihydropyridazin-3-yl]methyl}phenyl)urea]",< 100
6,"CC(C)CNC(=O)Nc1cccc(Cc2nn(-c3cnn(C)c3)ccc2=O)c1 [Example 491, 1-(2-methylpropyl)-3-(3-{[1-(1-methyl-1H-pyrazol-4-yl)-4-oxo-1,4-dihydropyridazin-3-yl]methyl}phenyl)urea]",< 100
7,"Cn1cc(-n2ccc(=O)c(Cc3cccc(NC(=O)NC4CC4)c3)n2)cn1 [Example 492, 1-cyclopropyl-3-(3-{[1-(1-methyl-1H-pyrazol-4-yl)-4-oxo-1,4-dihydropyridazin-3-yl]methyl}phenyl)urea]",100 to 1000
8,"COCCNC(=O)Nc1cccc(Cc2nn(-c3cnn(C)c3)ccc2=O)c1 [Example 493, 1-(2-methoxyethyl)-3-(3-{[1-(1-methyl-1H-pyrazol-4-yl)-4-oxo-1,4-dihydropyridazin-3-yl]methyl}phenyl)urea]",< 100
9,"CCCCNC(=O)Nc1cccc(Cc2nn(-c3cnn(C)c3)ccc2=O)c1 [Example 494, 1-butyl-3-(3-{[1-(1-methyl-1H-pyrazol-4-yl)-4-oxo-1,4-dihydropyridazin-3-yl]methyl}phenyl)urea]",< 100
10,"COc1ccc(CNC(=O)Nc2cccc(Cc3nn(-c4cnn(C)c4)ccc3=O)c2)cc1 [Example 495, 1-(4-methoxybenzyl)-3-(3-{[1-(1-methyl-1H-pyrazol-4-yl)-4-oxo-1,4-dihydropyridazin-3-yl]methyl}phenyl)urea]",< 100
11,"O=C(NCCN1CCOCC1)Nc1cccc(Cc2nn(-c3ccc(F)c(F)c3)ccc2=O)c1 [Example 496, 1-(3-{[1-(3,4-difluorophenyl)-4-oxo-1,4-dihydropyridazin-3-yl]methyl}phenyl)-3-(2-morpholin-4-ylethyl)urea]",< 100
12,"COC(=O)Nc1cccc(Cc2nn(-c3cnn(C)c3)ccc2=O)c1 [Example 497, Methyl(3-{[1-(1-methyl-1H-pyrazol-4-yl)-4-oxo-1,4-dihydropyridazin-3-yl]methyl}phenyl)carbamate]",< 100
13,"Cn1cc(-n2ccc(=O)c(Cc3cccc(NC(=O)OCc4ccccc4)c3)n2)cn1 [Example 498, benzyl(3-{[1-(1-methyl-1H-pyrazol-4-yl)-4-oxo-1,4-dihydropyridazin-3-yl]methyl}phenyl)carbamate]",< 100
14,"Cn1cc(-n2ccc(=O)c(Cc3cccc(NC(=O)OCCF)c3)n2)cn1 [Example 499, 2-fluoroethyl (3-{[1-(1-methyl-1H-pyrazol-4-yl)-4-oxo-1,4-dihydropyridazin-3-yl]methyl}phenyl)carbamate]",< 100
15,"CCCCOC(=O)Nc1cccc(Cc2nn(-c3cnn(C)c3)ccc2=O)c1 [Example 500, Butyl (3-{[1-(1-methyl-1H-pyrazol-4-yl)-4-oxo-1,4-dihydropyridazin-3-yl]methyl}phenyl)carbamate]",< 100
16,"Cn1cc(-n2ccc(=O)c(Cc3cccc(NC(=O)OCC(C)(C)C)c3)n2)cn1 [Example 501, 2,2-dimethylpropyl (3-{[1-(1-methyl-1H-pyrazol-4-yl)-4-oxo-1,4-dihydropyridazin-3-yl]methyl}phenyl)carbamate]",< 100
17,"COCCOC(=O)Nc1cccc(Cc2nn(-c3cccc(C#N)c3)ccc2=O)c1 [Example 502, 2-methoxyethyl (3-{[1-(3-cyanophenyl)-4-oxo-1,4-dihydropyridazin-3-yl]methyl}phenyl)carbamate]",< 100
18,"COCCOC(=O)Nc1cccc(Cc2nn(-c3cc(F)c(F)c(F)c3)ccc2=O)c1 [Example 503, 2-methoxyethyl (3-{[4-oxo-1-(3,4,5-trifluorophenyl)-1,4-dihydropyridazin-3-yl]methyl}phenyl)carbamate]",< 100
19,"CCOC(=O)Nc1cccc(Cc2nn(-c3ccc(F)c(F)c3)ccc2=O)c1 [Example 504, ethyl (3-{[1-(3,4-difluorophenyl)-4-oxo-1,4-dihydropyridazin-3-yl]methyl}phenyl)carbamate]",< 100
20,"CC(C)COC(=O)Nc1cccc(Cc2nn(-c3ccc(F)c(F)c3)ccc2=O)c1 [Example 505, 2-methylpropyl (3-{[1-(3,4-difluorophenyl)-4-oxo-1,4-dihydropyridazin-3-yl]methyl}phenyl)carbamate]",< 100
21,"COCCOC(=O)Nc1cccc(Cc2nn(-c3ccc(F)c(F)c3)ccc2=O)c1 [Example 506, 2-methoxyethyl (3-{[1-(3,4-difluorophenyl)-4-oxo-1,4-dihydropyridazin-3-yl]methyl}phenyl)carbamate]",< 100
22,"COCCOC(=O)Nc1cccc(Cc2nn(-c3cc(F)cc(F)c3)ccc2=O)c1 [Example 507, 2-methoxyethyl (3-{[1-(3,5-difluorophenyl)-4-oxo-1,4-dihydropyridazin-3-yl]methyl}phenyl)carbamate]",< 100
23,"COCCOC(=O)Nc1cccc(Cc2nn(-c3ccc(C#N)cc3)ccc2=O)c1 [Example 508, 2-methoxyethyl (3-{[1-(4-cyanophenyl)-4-oxo-1,4-dihydropyridazin-3-yl]methyl}phenyl)carbamate]",< 100
24,"COCCOC(=O)Nc1cccc(Cc2nn(-c3cc(F)cc(Cl)c3)ccc2=O)c1 [Example 509, 2-methoxyethyl (3-{[1-(3-chloro-5-fluorophenyl)-4-oxo-1,4-dihydropyridazin-3-yl]methyl}phenyl)carbamate]",< 100
25,"Cn1cc(-n2ccc(=O)c(Cc3cccc(NC(=O)OCCn4ccnc4)c3)n2)cn1 [Example 510, 2-(1H-Imidazol-1-yl)ethyl(3-{[1-(1-methyl-1H-pyrazol-4-yl)-4-oxo-1,4-dihydropyridazin-3-yl]methyl}phenyl)carbamate]",< 100

# Further lines, results first:
row,IC50 [nM],Compound
1,< 100,"CN1CCN(CCCOC(=O)Nc2cccc(Cc3nn(-c4cc(F)c(F)c(F)c4)ccc3=O)c2)CC1 [Example 511, 3-(4-methylpiperazin-1-yl)propyl(3-{[4-oxo-1-(3,4,5-trifluorophenyl)-1,4-dihydropyridazin-3-yl]methyl}phenyl)carbamate]"
2,< 100,"O=C(Nc1cccc(Cc2nn(-c3cc(F)c(F)c(F)c3)ccc2=O)c1)OCCN1CCC(C(=O)O)CC1 [Example 512, 1-(2-{[(3-{[4-oxo-1-(3,4,5-trifluorophenyl)-1,4-dihydropyridazin-3-yl]methyl}phenyl)carbamoyl]oxy}ethyl)piperidine-4-carboxylic acid]"
3,< 100,"CC(C)(O)CCOC(=O)Nc1cccc(Cc2nn(-c3cc(F)c(F)c(F)c3)ccc2=O)c1 [Example 514, 3-hydroxy-3-methylbutyl (3-{[4-oxo-1-(3,4,5-trifluorophenyl)-1,4-dihydropyridazin-3-yl]methyl}phenyl)carbamate]"
4,< 100,"O=C(Nc1cccc(Cc2nn(-c3cc(F)c(F)c(F)c3)ccc2=O)c1)OCCN1CCS(=O)(=O)CC1 [Example 515, 2-(1,1-dioxidothio-morpholin-4-yl)ethyl (3-{[4-oxo-1-(3,4,5-trifluorophenyl)-1,4-dihydropyridazin-3-yl]methyl}phenyl)carbamate]"
5,< 100,"CN1CCN(CCOC(=O)Nc2cccc(Cc3nn(-c4cc(F)c(F)c(F)c4)ccc3=O)c2)CC1 [Example 516, 2-(4-methylpiperazin-1-yl)ethyl (3-{[4-oxo-1-(3,4,5-trifluorophenyl)-1,4-dihydropyridazin-3-yl]methyl}phenyl)carbamate]"
6,< 100,"O=C(Nc1cccc(Cc2nn(-c3cc(F)cc(F)c3)ccc2=O)c1)OCCN1CCS(=O)(=O)CC1 [Example 517, 2-(1,1-dioxidothio-morpholin-4-yl)ethyl (3-{[1-(3,5-difluorophenyl)-4-oxo-1,4-dihydropyridazin-3-yl]methyl}phenyl)carbamate]"
7,< 100,CN1CCN(CCCOC(=O)Nc2cccc(Cc3nn(-c4cc(F)cc(F)c4)ccc3=O)c2)CC1 [Example 518]
8,< 100,"CN1CCN(CCOC(=O)Nc2cccc(Cc3nn(-c4cc(F)cc(F)c4)ccc3=O)c2)CC1 [Example 519, 2-(4-methylpiperazin-1-yl)ethyl (3-{[1-(3,5-difluorophenyl)-4-oxo-1,4-dihydropyridazin-3-yl]methyl}phenyl)carbamate]"
9,< 100,"O=C(Nc1cccc(Cc2nn(-c3cc(F)cc(F)c3)ccc2=O)c1)OCCCN1CCOCC1 [Example 521, 3-morpholin-4-ylpropyl (3-{[1-(3,5-difluorophenyl)-4-oxo-1,4-dihydropyridazin-3-yl]methyl}phenyl)carbamate]"
10,< 100,"O=C(Nc1cccc(Cc2nn(-c3cc(F)cc(F)c3)ccc2=O)c1)OCCCN1CCS(=O)(=O)CC1 [Example 522, 3-(1,1-dioxidothio-morpholin-4-yl)propyl (3-{[1-(3,5-difluorophenyl)-4-oxo-1,4-dihydropyridazin-3-yl]methyl}phenyl)carbamate]"
11,< 100,"O=C(Nc1cccc(Cc2nn(-c3cc(F)cc(F)c3)ccc2=O)c1)OCCN1CCOCC1 [Example 523, 2-morpholin-4-ylethyl (3-{[1-(3,5-difluorophenyl)-4-oxo-1,4-dihydropyridazin-3-yl]methyl}phenyl)carbamate]"
